This is an account of results in patent US10647690B2, “2,3-epoxy succinyl derivative, preparation method and use thereof” (Institute of Pharmacology and Toxicology Academy of …, priority 2016, dated 2020).

pIC50: −log10 of the molar value. Read-outs that look alike come from different tables or passages of the source.

Broadly, the inhibition is the relative decrease from the control value, in per cent. The term IC50 denotes the concentration that gives 50% inhibition. As a reminder, the pIC50 is −log10 of the IC50, conventionally taken in molar units.

Assay [1] concerns the target T1, Cathepsin K (Homo sapiens, UniProt P43235).
T1 construct: purchased Biovision K150-100
T1 sequence (P43235 115-329): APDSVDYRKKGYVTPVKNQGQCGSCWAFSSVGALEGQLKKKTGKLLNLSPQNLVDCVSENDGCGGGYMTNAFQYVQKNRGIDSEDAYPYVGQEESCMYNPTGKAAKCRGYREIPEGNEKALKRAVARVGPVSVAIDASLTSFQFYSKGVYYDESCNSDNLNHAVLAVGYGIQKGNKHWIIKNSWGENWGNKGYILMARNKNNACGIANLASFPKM
The assay can be described thus: Preliminary screening of Cathepsin K (Cathepsin K Inhibitor Screening Kit K150-100, Biovision). It counts as biochemical. Conditions: relative inhibition rate vs 10 μM FF-FMK control. The essentials:
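Percent inhibition was derived from kinetic slopes (ΔRFU/Δt, ex 400/em 505 nm, 120 min at 37 °C), normalized between an uninhibited enzyme control and 10 μM FF-FMK. Compounds were added from 100 μM or 10 μM working solutions (10% DMSO) to Cathepsin K and preincubated 15 min at 25 °C before substrate.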

The target of assay [2] is T2, Cathepsin L (Homo sapiens, UniProt P07711).
T2 construct: purchased Biovision K161-100
T2 sequence (P07711 114-333): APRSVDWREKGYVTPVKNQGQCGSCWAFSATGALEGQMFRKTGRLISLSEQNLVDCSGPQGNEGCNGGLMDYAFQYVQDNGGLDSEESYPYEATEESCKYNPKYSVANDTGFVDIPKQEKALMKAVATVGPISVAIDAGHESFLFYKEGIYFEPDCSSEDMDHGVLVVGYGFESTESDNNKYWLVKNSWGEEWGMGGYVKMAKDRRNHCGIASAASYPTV
The assay can be described thus: IC50 determination against Cathepsin L (Biovision kit K161-100). In kind it is biochemical. Conditions: CTSL; for pIC50: average of Exp-1 and Exp-2, read-out: Ave of IC50. As for the experimental part:
2. Method for determining IC50 of compounds against cathepsin:
IC50 of compounds against Cathepsin L was determined by using Cathepsin L Inhibitor Screening Kit (Product No. K161-100) from Biovision Company;
2.1.1.3 Preparation of Cathepsin L solution: Cathepsin L reagent (3 μl) was added to Cathepsin L enzyme (3 μl), mixed well, and on standing for 1 h, to get 1 mU/μl Cathepsin L enzyme solution. Cathepsin L buffer (24 μl) was added to 1 mU/μl cathepsin L enzyme solution (6 μl), to get 0.2 mU/μl Cathepsin L enzyme solution. 0.2 mU/μl cathepsin L enzyme (23 μl), and DTT (46 μl) were added to Cathepsin L buffer (2231 μl), and mixed well, to prepare Cathepsin L enzyme solution with a volume of 2.3 ml, which was placed on ice for further use.
2.1.2 Preparation of compound solutions: 30 mM and 10 mM compound stock solutions, and control compounds were gradiently diluted in DMSO at a ratio of 1:3, wherein the maximum dilution fold was 19683; the gradiently diluted compound solution (3 μl) was added to Cathepsin K, B, L, and S buffer (27 μl), respectively, and mixed well, wherein the control compounds (FF-FMK, F-F-FMK, FF-FMK and Z-FF-FMK) were at the concentrations of 66.67, 22.22, 7.41, 2.47, 0.82, 0.27, 0.091, 0.03, 0.01, 0.0034 and 0 μM, respectively, the test compounds were at the concentrations of 1000, 333.3, 111.1, 37, 12.3, 4.1, 1.4, 0.46, 0.15, 0.05 and 0 μM, respectively, and the final concentration of DMSO was 10%.
2.1.3.3 Cathepsin L: Cathepsin L substrate (45 μl) was added to Cathepsin L buffer (1755 μl), and mixed well, to prepare Cathepsin L substrate solution with a volume of 1.8 ml, which was placed on ice for further use.
Method for screening cathepsin inhibitors: the cathepsin solution (prepared in Item 2.1.1) was added to a 384-well plate (ProxiPlate-384 Plus, Perkinelmer) at 10 μl/well, and centrifuged at 1000 rpm for Imin; the compound solution (prepared in Item 2.1.2) was then added at 2 μl/well, and every concentration was repeated in two wells; the final concentrations of the test compounds were 100, 33.3, 11.1, 3.7, 1.23, 0.41, 0.14, 0.046, 0.015, 0.005 and 0 μM, respectively, wherein the final concentration of DMSO was 1%; after centrifugation at 1000 rpm for 1 min, the plate was put in a 25° C. incubator for 15 min; the cathepsin substrate solution was then added at 8 µl/well, and centrifuged at 1000 rpm for 1 min; and finally, the fluorescence signal was read in Enspire, wherein the exciting light was at a wavelength of 400 nm, the emitting light was at a wavelength of 505 nm, and continuous reading was performed at 37° C. for 120 min.
Data analysis: the slope (S) for all the samples was calculated by ΔRFU(RFU2−RFU1) and time ΔT(T2−T1), including negative control (Enzyme Control, EC) and positive control (Inhibitor Control, IC: 10 μM (FF-FMK, F-F-FMK, FF-FMK and Z-FF-FMK), and the calculation formula was as followed: Relative inhibition rate %=(SEC−SS)/(SEC−SIC)*100. The IC50 for each compound was obtained by means of fitting by software GraphPad Prism 5.0.

The mark [3] stands for this setting: 1 μM compound, replicate 1, read-out: Inhibition % (1 μM) replicate 1.
Where [4] appears, read: 1 μM compound, replicate 2, read-out: Inhibition % (1 μM) replicate 2.
Setting [5] is: 10 μM compound, replicate 1, read-out: Inhibition % (10 μM) replicate 1.
Setting [6] is: 10 μM compound, replicate 2, read-out: Inhibition % (10 μM) replicate 2.
Where [7] appears, read: Exp-1, read-out: IC50 (nM) Exp-1.
[8] abbreviates: Exp-2, read-out: IC50 (nM) Exp-2.

As for `CCOC(=O)[C@H]1O[C@@H]1C(=O)N[C@@H](CCSC)C(=O)NCCCc1ccccc1` [Compound 8, (2s, 3s)-2-ethoxycarbonyl-3-[2-[(s)-4-methylthio-1-carbonyl-1-(3-phenylpropylamino)butane]formylamino]epoxysuccinic acid], the inhibition at 1 µM is 80.5% in assay [1] (setting [3]) and 78.9% in assay [1] (setting [4]). Besides, the inhibition at 10 µM in assay [1] (setting [5]) turned out to be 96.9%; in assay [1] (setting [6]) it was 94.1%. Also, the IC50 is 3610 nM in assay [2] (setting [7]) and 4450 nM in assay [2] (setting [8]). In assay [2], the pIC50 was 5.39.

Take `CCOC(=O)[C@H]1O[C@@H]1C(=O)N[C@@H](CCSC)C(=O)NC(CC)CC` [Compound 39, (2s, 3s)-2-ethoxycarbonyl-3-[2-[(s)-4-methylthio-1-carbonyl-1-(1-ethylpropylamino)butane]formylamino]epoxysuccinic acid]: the inhibition at 1 µM in assay [1] (setting [3]) worked out at 81.5%; in assay [1] (setting [4]), 85.2%. The inhibition at 10 µM in assay [1] (setting [5]) was determined as 97.3%; in assay [1] (setting [6]), 99.5%. Moreover, the IC50 in assay [2] (setting [7]) stood at 9250 nM; in assay [2] (setting [8]) it was 9950 nM. Also, the pIC50 in assay [2] was 5.02.

With `CCOC(=O)[C@H]1O[C@@H]1C(=O)N[C@@H](CCSC)C(=O)NCCc1cccc(F)c1` [Compound 34, (2s, 3s)-2-ethoxycarbonyl-3-[2-[(s)-4-methylthio-1-carbonyl-1-(3-fluorophenylethylamino)butane]formylamino]epoxysuccinic acid], the results for the inhibition at 1 µM in assay [1] (setting [3]) and in assay [1] (setting [4]) were 88.6% and 90.8%, respectively. For the same compound, the values for the inhibition at 10 µM in assay [1] (setting [5]) and in assay [1] (setting [6]) were 94.4% and 95.7%, respectively. In addition, the values for the IC50 in assay [2] (setting [7]) and in assay [2] (setting [8]) were 338 nM and 382 nM, respectively. Moreover, in assay [2], the pIC50 is 6.44.

Regarding `CCOC(=O)[C@H]1O[C@@H]1C(=O)N[C@@H](CCSC)C(=O)NCCCCc1ccccc1` [Compound 40, (2s, 3s)-2-ethoxycarbonyl-3-[2-[(s)-4-methylthio-1-carbonyl-1-(4-phenylbutylamino)butane]formylamino]epoxysuccinic acid], the results for the inhibition at 1 µM in assay [1] (setting [3]) and in assay [1] (setting [4]) were 85.5% and 89.1%, respectively. Further, the figures for the inhibition at 10 µM in assay [1] (setting [5]) and in assay [1] (setting [6]) were 91.1% and 94.9%, respectively. Further, the IC50 in assay [2] (setting [7]) is 4160 nM; in assay [2] (setting [8]) it was 4610 nM. Also, the pIC50 in assay [2] is 5.36.

`CCOC(=O)[C@H]1O[C@@H]1C(=O)N[C@@H](CCSC)C(=O)N1CCC(c2ccccc2)CC1` [Compound 13, (2s, 3s)-2-ethoxycarbonyl-3-[2-[(s)-4-methylthio-1-carbonyl-1-(phenylpiperidinyl)butane]formylamino]epoxysuccinic acid]: the inhibition at 1 µM in assay [1] (setting [3]) turned out to be 99.7%; in assay [1] (setting [4]), 98.9%. Besides, the inhibition at 10 µM in assay [1] (setting [5]) amounted to 108%; in assay [1] (setting [6]) it was 106%. The IC50 in assay [2] (setting [7]) was determined as 5880 nM; in assay [2] (setting [8]), 6630 nM. For the same compound, the pIC50 in assay [2] was 5.20.

With `CCCCCCNC(=O)[C@H](CCSC)NC(=O)[C@H]1O[C@@H]1C(=O)OCC` [Compound 5, (2s, 3s)-2-ethoxycarbonyl-3-[2-[(s)-4-methylthio-1-carbonyl-1-(hexylamino)butane]formylamino]epoxysuccinic acid], the inhibition at 1 µM in assay [1] (setting [3]) was 90.9%; in assay [1] (setting [4]), 89.5%. For the same compound, the inhibition at 10 µM in assay [1] (setting [5]) worked out at 91.3%; in assay [1] (setting [6]), 95.7%. The IC50 in assay [2] (setting [7]) was 2270 nM; in assay [2] (setting [8]), 2330 nM. In addition, in assay [2], the pIC50 was 5.64.

For `CCOC(=O)[C@H]1O[C@@H]1C(=O)N[C@@H](CC(C)C)C(=O)NCCC(C)C` [zxy-37, E64d, reference compound], the “Inhibition % (1 μM) replicate 1” value in assay [1] (1 μM compound, replicate 1) is recorded as 85.73%. Also, the “Inhibition % (1 μM) replicate 2” value in assay [1] (1 μM compound, replicate 2) is 87.75%. For the same compound, in assay [1] (10 μM compound, replicate 1), the “Inhibition % (10 μM) replicate 1” value was 90.96%. Also, the “Inhibition % (10 μM) replicate 2” value in assay [1] (10 μM compound, replicate 2) was found to be 98.34%. Moreover, the IC50 in assay [2] (setting [7]) was determined as 171 nM; in assay [2] (setting [8]) it was 180 nM. In assay [2], the pIC50 is 6.76.
